The target in one experiment is T1, c-kit mutant D816V (Homo sapiens, UniProt P10721, D816V/DEL694-753).
T1 construct: residues 551-934, kinase insertion domain residues 694-753 deleted; 6x-histidine (N); made in house; host or cells: E. coli Arctic Express (DE3) RIL (Stratagene)
The experiment can be described thus: c-Kit mutant D816V biochemical assay, AlphaScreen. The note with it: c-kit D816V biochemical inhibitory activity; read-out: Biochemical activity (IC50 μM) Kit D816V. Put shortly:
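Purified His-tagged c-Kit D816V (E. coli-expressed) assayed in 25 mM HEPES pH 7.2 with Mg/Mn, 5% DMSO and 10 μM ATP, 30 min at room temperature, 8-point 1:3 dilutions. Phosphorylation detected by AlphaScreen with streptavidin donor and PY20 acceptor beads; IC50 from signal versus concentration.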
Background: Bead proximity is the source of the signal in Alpha formats.

For the next experiment, the target named is T2, c-kit kinase (Homo sapiens, UniProt P10721).
T2 construct: The c-kit (or kinase domain thereof) is an active kinase in AlphaScreen; poly-Histidine tag (in-house protein only) (cleaved yes); host or cells: E. coli BL21(DE3)RIL, co-expressed with PTP1B
T2 sequence (P10721 26-976): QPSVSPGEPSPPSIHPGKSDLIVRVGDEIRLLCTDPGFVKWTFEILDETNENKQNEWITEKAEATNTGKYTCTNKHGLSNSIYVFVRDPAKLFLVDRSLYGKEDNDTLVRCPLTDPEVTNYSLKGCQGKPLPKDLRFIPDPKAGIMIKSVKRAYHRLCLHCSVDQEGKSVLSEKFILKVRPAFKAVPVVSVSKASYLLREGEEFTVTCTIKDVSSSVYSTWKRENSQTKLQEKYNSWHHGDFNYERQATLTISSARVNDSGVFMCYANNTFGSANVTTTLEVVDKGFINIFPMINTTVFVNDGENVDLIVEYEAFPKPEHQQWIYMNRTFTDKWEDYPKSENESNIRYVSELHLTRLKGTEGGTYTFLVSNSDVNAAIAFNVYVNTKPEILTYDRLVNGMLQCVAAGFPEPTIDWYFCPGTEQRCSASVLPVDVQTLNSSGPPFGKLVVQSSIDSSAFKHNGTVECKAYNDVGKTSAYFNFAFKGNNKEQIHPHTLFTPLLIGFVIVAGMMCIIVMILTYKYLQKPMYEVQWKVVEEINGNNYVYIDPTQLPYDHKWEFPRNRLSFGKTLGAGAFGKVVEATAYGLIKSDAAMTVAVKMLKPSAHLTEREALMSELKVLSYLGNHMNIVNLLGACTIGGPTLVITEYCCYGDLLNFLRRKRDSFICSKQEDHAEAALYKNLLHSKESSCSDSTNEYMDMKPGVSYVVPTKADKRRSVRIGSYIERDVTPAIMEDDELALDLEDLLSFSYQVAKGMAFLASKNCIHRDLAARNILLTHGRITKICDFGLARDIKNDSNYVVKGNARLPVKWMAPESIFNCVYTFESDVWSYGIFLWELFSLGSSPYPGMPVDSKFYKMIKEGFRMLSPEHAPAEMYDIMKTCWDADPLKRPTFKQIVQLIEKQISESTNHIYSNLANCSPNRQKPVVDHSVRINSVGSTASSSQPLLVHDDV
The experiment can be described thus: c-Kit biochemical assay, AlphaScreen, 10 μM ATP. The note with it: c-kit biochemical inhibitory activity; read-out: Biochemical activity (IC50 μM) Kit. The gist of the method: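 His-tagged c-Kit expressed in E. coli with co-expressed PTP1B (dephosphorylated), tag removed; 0.1 ng per reaction with biotinylated-peptide substrate in 50 mM HEPES pH 7.2, 5 mM MgCl2, 5 mM MnCl2, 5% DMSO, 10 μM ATP, 1 h at room temperature. Phosphorylation detected by AlphaScreen (streptavidin donor, PY20 acceptor beads); IC50 from 8-point 1:3 dilution series.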

T1 sequence (P10721 with tags, fused parts or gaps DEL694-753/D816V): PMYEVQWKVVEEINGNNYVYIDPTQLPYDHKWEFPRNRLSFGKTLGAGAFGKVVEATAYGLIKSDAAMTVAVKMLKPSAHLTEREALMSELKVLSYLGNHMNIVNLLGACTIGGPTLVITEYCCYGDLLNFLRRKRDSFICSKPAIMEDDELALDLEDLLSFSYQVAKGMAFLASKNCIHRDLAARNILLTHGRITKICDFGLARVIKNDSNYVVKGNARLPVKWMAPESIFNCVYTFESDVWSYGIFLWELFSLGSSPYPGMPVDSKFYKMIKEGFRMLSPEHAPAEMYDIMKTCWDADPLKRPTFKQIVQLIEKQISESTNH

`O=C(Nc1ccccc1Cl)N1CCN(c2ncnc3[nH]c(-c4cccnc4)cc23)CC1` [P-0219, N-(2-chlorophenyl)-4-[6-(3-pyridyl)-7H-pyrrolo[2,3-d]pyrimidin-4-yl]piperazine-1-carboxamide]: the values for the IC50 on c-kit mutant D816V and at c-kit kinase were 1 to 10 µM and 10 to 200 µM, respectively.
With `O=C(Nc1ccccc1Cl)N1CCN(c2ncnc3[nH]c(-c4cccnc4)cc23)CC1` [P-0220, N-(2-chlorophenyl)-4-[6-(3-pyridyl)-7H-pyrrolo[2,3-d]pyrimidin-4-yl]piperazine-1-carboxamide], the IC50 at c-kit mutant D816V and on c-kit kinase was 0.0001 to 1 µM in each case.
As to `CCOc1cccc(NC(=O)N2CCN(c3ncnc4[nH]c(-c5cccnc5)cc34)CC2)c1` [P-0221, N-(3-ethoxyphenyl)-4-[6-(3-pyridyl)-7H-pyrrolo[2,3-d]pyrimidin-4-yl]piperazine-1-carboxamide], the IC50 on c-kit mutant D816V was in the range of 0.0001 to 1 µM; at c-kit kinase, 1 to 10 µM.
`O=C(NCc1ccc(F)cc1)N1CCN(c2ncnc3[nH]c(-c4cccnc4)cc23)CC1` [P-0222, N-[(4-fluorophenyl)methyl]-4-[6-(3-pyridyl)-7H-pyrrolo[2,3-d]pyrimidin-4-yl]piperazine-1-carboxamide]: the half-maximal inhibitory concentration (IC50) at c-kit mutant D816V and at c-kit kinase was 1 to 10 µM each time.
Consider `O=C(Nc1cccc(C(F)(F)F)c1)N1CCN(c2ncnc3[nH]c(-c4cccnc4)cc23)CC1` [P-0223, 4-[6-(3-pyridyl)-7H-pyrrolo[2,3-d]pyrimidin-4-yl]-N-[3-(trifluoromethyl)phenyl]piperazine-1-carboxamide], for which the IC50 at c-kit mutant D816V and on c-kit kinase was 0.0001 to 1 µM throughout.
Take `O=C(Nc1ccc(OC(F)(F)F)cc1)N1CCN(c2ncnc3[nH]c(-c4cccnc4)cc23)CC1` [P-0224, 4-[6-(3-pyridyl)-7H-pyrrolo[2,3-d]pyrimidin-4-yl]-N-[4-(trifluoromethoxy)phenyl]piperazine-1-carboxamide]: the IC50 on c-kit mutant D816V and on c-kit kinase was 0.0001 to 1 µM throughout.
In the case of `CCOc1ccc(NC(=O)N2CCN(c3ncnc4[nH]c(-c5cccnc5)cc34)CC2)cc1` [P-0225, N-(4-ethoxyphenyl)-4-[6-(3-pyridyl)-7H-pyrrolo[2,3-d]pyrimidin-4-yl]piperazine-1-carboxamide], the IC50 at c-kit mutant D816V was 1 to 10 µM; at c-kit kinase, 10 to 200 µM.
On to `O=C(NCc1ccc(F)cc1)N1CCN(c2ncnc3[nH]cc(-c4ccccc4)c23)CC1` [P-0226, N-[(4-fluorophenyl)methyl]-4-(5-phenyl-7H-pyrrolo[2,3-d]pyrimidin-4-yl)piperazine-1-carboxamide], for which the results for the IC50 at c-kit mutant D816V and at c-kit kinase were 10 to 200 µM and 1 to 10 µM, respectively.
In the same order, the values of `COc1cc(NC(=O)N2CCN(c3ncnc4[nH]c(-c5cccnc5)cc34)CC2)cc(OC)c1` [P-0229, N-(3,5-dimethoxyphenyl)-4-[6-(3-pyridyl)-7H-pyrrolo[2,3-d]pyrimidin-4-yl]piperazine-1-carboxamide] are 0.0001 to 1 µM and 1 to 10 µM.
Consider `CC(C)(C)OC(=O)N1CCN(c2ncnc3[nH]c(-c4cccnc4)cc23)CC1` [P-0232, tert-butyl 4-[6-(3-pyridyl)-7H-pyrrolo[2,3-d]pyrimidin-4-yl]piperazine-1-carboxylate], for which the IC50 at c-kit mutant D816V and on c-kit kinase was 10 to 200 µM in each case.
As to `c1nc(N2CCNCC2)c2cc[nH]c2n1` [P-0233, 4-piperazin-1-yl-7H-pyrrolo[2,3-d]pyrimidine], the IC50 on c-kit mutant D816V and on c-kit kinase was 10 to 200 µM throughout.
Take `COc1ccc(C(=O)N2CCN(c3ncnc4[nH]ccc34)CC2)cc1` [P-0234, (4-methoxyphenyl)-[4-(7H-pyrrolo[2,3-d]pyrimidin-4-yl)piperazin-1-yl]methanone]: the IC50 on c-kit mutant D816V and on c-kit kinase was 10 to 200 µM throughout.
For `COc1ccc(NC(=O)N2CCN(c3ncnc4[nH]ccc34)CC2)cc1` [P-0235, N-(4-methoxyphenyl)-4-(7H-pyrrolo[2,3-d]pyrimidin-4-yl)piperazine-1-carboxamide], the IC50 fell in the range of 1 to 10 µM at c-kit mutant D816V and 10 to 200 µM on c-kit kinase.
For the compound `CCCNC(=O)N1CCN(c2ncnc3[nH]c(-c4ccccc4)cc23)CC1` [P-0236, 4-(6-phenyl-7H-pyrrolo[2,3-d]pyrimidin-4-yl)-N-propyl-piperazine-1-carboxamide], the results for the IC50 at c-kit mutant D816V and on c-kit kinase were 10 to 200 µM and 1 to 10 µM, respectively.
For the compound `O=C(Nc1ccccc1Cl)N1CCN(c2ncnc3[nH]c(-c4ccccc4)cc23)CC1` [P-0237, N-(2-chlorophenyl)-4-(6-phenyl-7H-pyrrolo[2,3-d]pyrimidin-4-yl)piperazine-1-carboxamide], the IC50 on c-kit mutant D816V is 1 to 10 µM; on c-kit kinase, 0.0001 to 1 µM.
In the case of `COc1cc(NC(=O)N2CCN(c3ncnc4[nH]c(-c5ccccc5)cc34)CC2)cc(OC)c1` [P-0239, N-(3,5-dimethoxyphenyl)-4-(6-phenyl-7H-pyrrolo[2,3-d]pyrimidin-4-yl)piperazine-1-carboxamide], the IC50 on c-kit mutant D816V was in the range of 1 to 10 µM; on c-kit kinase, 0.0001 to 1 µM.
As for `CCCNS(=O)(=O)N1CCN(c2ncnc3[nH]c(-c4ccccc4)cc23)CC1` [P-0241, 4-(6-phenyl-7H-pyrrolo[2,3-d]pyrimidin-4-yl)-N-propyl-piperazine-1-sulfonamide], the results for the IC50 on c-kit mutant D816V and on c-kit kinase were 0.0001 to 1 µM and 1 to 10 µM, respectively.
Consider `O=C(NCc1ccc(F)cc1)N1CCN(c2ncnc3[nH]c(-c4ccccc4)cc23)CC1` [P-0242, N-[(4-fluorophenyl)methyl]-4-(6-phenyl-7H-pyrrolo[2,3-d]pyrimidin-4-yl)piperazine-1-carboxamide], for which the IC50 was in the range of 1 to 10 µM at c-kit mutant D816V and 0.0001 to 1 µM at c-kit kinase.
Regarding `COc1cc2ncnc(-c3ccc(S(=O)(=O)Nc4ccc(Cl)cc4)cc3F)c2cc1OCCCN1CCOCC1` [P-0247, N-(4-chlorophenyl)-3-fluoro-4-[7-methoxy-6-(3-morpholinopropoxy)quinazolin-4-yl]benzenesulfonamide], the figures for the IC50 at c-kit mutant D816V and on c-kit kinase were 0.0001 to 1 µM and 1 to 10 µM, respectively.
Take `COc1cc2ncnc(-c3ccc(S(=O)(=O)Nc4ccc(F)cc4)cc3F)c2cc1OCCCN1CCOCC1` [P-0248, 3-fluoro-N-(4-fluorophenyl)-4-[7-methoxy-6-(3-morpholinopropoxy)quinazolin-4-yl]benzenesulfonamide]: the IC50 at c-kit mutant D816V is 1 to 10 µM; on c-kit kinase it was 10 to 200 µM.
For the compound `COc1ccc(S(=O)(=O)Nc2ccc(-c3ncnc4cc(OC)c(OCCCN5CCOCC5)cc34)c(F)c2)cc1` [P-0249, N-[3-fluoro-4-[7-methoxy-6-(3-morpholinopropoxy)quinazolin-4-yl]phenyl]-4-methoxy-benzenesulfonamide], the IC50 is 0.0001 to 1 µM at c-kit mutant D816V and 1 to 10 µM at c-kit kinase.
In the case of `COc1cc2ncnc(-c3ccc(NS(=O)(=O)c4ccc(Cl)cc4)cc3F)c2cc1OCCCN1CCOCC1` [P-0250, 4-chloro-N-[3-fluoro-4-[7-methoxy-6-(3-morpholinopropoxy)quinazolin-4-yl]phenyl]benzenesulfonamide], the IC50 on c-kit mutant D816V and at c-kit kinase was 0.0001 to 1 µM in each case.
For the compound `COc1cc2ncnc(-c3ccc(NS(=O)(=O)C4CC4)cc3F)c2cc1OCCCN1CCOCC1` [P-0251, N-[3-fluoro-4-[7-methoxy-6-(3-morpholinopropoxy)quinazolin-4-yl]phenyl]cyclopropanesulfonamide], the IC50 at c-kit mutant D816V lay within 0.0001 to 1 µM; on c-kit kinase, 10 to 200 µM.
Regarding `COc1cc2ncnc(-c3ccc(NS(C)(=O)=O)cc3F)c2cc1OCCCN1CCOCC1` [P-0252, N-[3-fluoro-4-[7-methoxy-6-(3-morpholinopropoxy)quinazolin-4-yl]phenyl]methanesulfonamide], the results for the half-inhibitory concentration (IC50) on c-kit mutant D816V and on c-kit kinase were 0.0001 to 1 µM and 10 to 200 µM, respectively.
Taken in the same sequence, the figures for `COc1cc2c(-c3ccc(NS(=O)(=O)N4CCCC4)cc3F)ncnc2cc1OCCCN1CCCCC1` [P-0253, N-[3-fluoro-4-[6-methoxy-7-[3-(1-piperidyl)propoxy]quinazolin-4-yl]phenyl]pyrrolidine-1-sulfonamide] were 0.0001 to 1 µM and 1 to 10 µM.
As to `[2H]C([2H])([2H])S(=O)(=O)Nc1ccc(-c2ncnc3cc(OCCCN4CCCCC4)c(OC)cc23)c(F)c1` [P-0254, 1,1,1-trideuterio-N-[3-fluoro-4-[6-methoxy-7-[3-(1-piperidyl)propoxy]quinazolin-4-yl]phenyl]methanesulfonamide], the IC50 on c-kit mutant D816V was 0.0001 to 1 µM; on c-kit kinase, 1 to 10 µM.
With `COc1ccc(S(=O)(=O)Nc2ccc(-c3ncnc4cc(OCCCN5CCCCC5)c(OC)cc34)c(F)c2)cc1` [P-0255, N-[3-fluoro-4-[6-methoxy-7-[3-(1-piperidyl)propoxy]quinazolin-4-yl]phenyl]-4-methoxy-benzenesulfonamide], the IC50 at c-kit mutant D816V and at c-kit kinase was 0.0001 to 1 µM throughout.
Turning to `COc1cc2c(-c3ccc(NS(=O)(=O)c4ccc(Cl)cc4)cc3F)ncnc2cc1OCCCN1CCCCC1` [P-0256, 4-chloro-N-[3-fluoro-4-[6-methoxy-7-[3-(1-piperidyl)propoxy]quinazolin-4-yl]phenyl]benzenesulfonamide], the IC50 at c-kit mutant D816V and at c-kit kinase was 0.0001 to 1 µM each time.
With `COc1cc2c(-c3ccc(NS(=O)(=O)C4CC4)cc3F)ncnc2cc1OCCCN1CCCCC1` [P-0257, N-[3-fluoro-4-[6-methoxy-7-[3-(1-piperidyl)propoxy]quinazolin-4-yl]phenyl]cyclopropanesulfonamide], the figures for the IC50 at c-kit mutant D816V and at c-kit kinase were 0.0001 to 1 µM and 1 to 10 µM, respectively.

In general, IC50 refers to the concentration needed to halve the response being measured.

The values are drawn from patent US10227357B2, “Compounds and methods for kinase modulation, and indications therefor” (Plexxikon Inc., priority 2012, dated 2019).
